Assay [1] has as its target T1, human NHE3 (Homo sapiens, UniProt P48764).
T1 sequence (P48764 26-834): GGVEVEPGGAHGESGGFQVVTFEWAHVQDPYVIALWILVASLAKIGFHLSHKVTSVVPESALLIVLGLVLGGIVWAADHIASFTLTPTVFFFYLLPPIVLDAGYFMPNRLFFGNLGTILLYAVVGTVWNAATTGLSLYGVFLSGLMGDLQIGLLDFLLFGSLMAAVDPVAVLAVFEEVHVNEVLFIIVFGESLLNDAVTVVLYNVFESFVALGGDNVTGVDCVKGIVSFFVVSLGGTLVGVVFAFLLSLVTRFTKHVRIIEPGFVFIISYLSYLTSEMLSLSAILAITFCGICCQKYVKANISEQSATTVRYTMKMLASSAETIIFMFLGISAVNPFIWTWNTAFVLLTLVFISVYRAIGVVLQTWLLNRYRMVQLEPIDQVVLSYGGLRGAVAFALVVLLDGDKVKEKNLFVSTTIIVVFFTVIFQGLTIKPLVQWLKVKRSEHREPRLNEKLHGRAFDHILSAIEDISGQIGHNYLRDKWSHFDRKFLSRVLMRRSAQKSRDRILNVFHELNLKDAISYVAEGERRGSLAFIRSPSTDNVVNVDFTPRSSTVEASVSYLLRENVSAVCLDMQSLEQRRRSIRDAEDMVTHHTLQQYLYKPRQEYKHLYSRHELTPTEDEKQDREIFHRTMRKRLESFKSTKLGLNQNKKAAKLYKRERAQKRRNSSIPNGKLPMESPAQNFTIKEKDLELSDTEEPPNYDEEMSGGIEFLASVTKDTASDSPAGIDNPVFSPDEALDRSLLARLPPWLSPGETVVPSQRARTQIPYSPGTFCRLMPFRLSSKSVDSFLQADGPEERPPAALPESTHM
Kind of assay: Cell-based assay of NHE-3 activity (persistent inhibition), human. Particulars: PS120 fibroblasts stably expressing human NHE3, 60 min incubation then washout. How it is done: The ability of compounds to inhibit human and rat NHE-3-mediated Na^+-dependent H^+ antiport after application and washout was measured using a modification of the pH sensitive dye method described above. PS120 fibroblasts stably expressing human NHE3 were obtained from Mark Donowitz (Baltimore, Md.). Opossum kidney (OK) cells were obtained from the ATCC and propagated per their instructions. The rat NHE-3 gene was introduced into OK cells via electroporation, and cells were seeded into 96 well plates and grown overnight. Medium was aspirated from the wells, cells were washed once with NaCl-HEPES buffer (100 mM NaCl, 50 mM HEPES, 10 mM glucose, 5 mM KCl, 2 mM CaCl2, 1 mM MgCl2, pH 7.4), then overlayed with NaCl-HEPES buffer containing 0-30 μM test compound. After a 60 min incubation at room temperature, the test drug containing buffer was aspirated from the cells. Following aspiration, cells were washed once with NaCl-HEPES buffer without drug, then incubated for 30 min at 37° C. with NH4Cl-HEPES buffer (20 mM NH4Cl, 80 mM NaCl, 50 mM HEPES, 5 mM KCl, 2 mM CaCl2, 1 mM MgCl2, pH 7.4) containing 5 μM BCECF-AM. Cells were washed once with Ammonium free, Na^+-free HEPES (100 mM choline, 50 mM HEPES, 10 mM glucose, 5 mM KCl, 2 mM CaCl2, 1 mM MgCl2, pH 7.4) and incubated in the same buffer for 10 minutes at room temperature to lower intracellular pH. NHE-3-mediated recovery of neutral intracellular pH was initiated (10 min after compound washout) by addition of Na-HEPES buffer. […] Changes in intracellular pH were monitored using a FLIPR Tetra® (Molecular Devices, Sunnyvale, Calif.) by excitation at λex 439 to 505 nm, and measuring BCECF fluorescence at λem 538 nm. The initial rate of the fluorescence ratio change was used as a measure of NHE-mediated Na^+/H^+ activity, and reported as the change in fluorescence ratio per minute. Initial rates were plotted as the average 2 or more replicates, and pIC50 values were estimated using GraphPad Prism.

The target in assay [2] is T1, human NHE3. The experiment in a line: Cell-based assay of NHE-3 activity (pre-incubation inhibition), human. The method, then:
Rat and human NHE-3-mediated Na^+-dependent H^+ antiport was measured using a modification of the pH sensitive dye method originally reported by Paradiso (Proc. Natl. Acad. Sci. USA. (1984) 81(23): 7436-7440, which is hereby incorporated by reference in its entirety). PS120 fibroblasts stably expressing human NHE3 were obtained from Mark Donowitz (Baltimore, Md.). Opossum kidney (OK) cells were obtained from the ATCC and propagated per their instructions. The rat NHE-3 gene (GenBank M85300) was introduced into OK cells via electroporation, and cells were seeded into 96 well plates and grown overnight. Medium was aspirated from the wells then incubated for 30 min at 37° C. with NH4Cl-HEPES buffer (20 mM NH4Cl, 80 mM NaCl, 50 mM HEPES, 5 mM KCl, 2 mM CaCl2, 1 mM MgCl2, pH 7.4) containing 5 μM BCECF-AM. Cells were washed once with Ammonium free, Nat-free HEPES (100 mM choline, 50 mM HEPES, 10 mM glucose, 5 mM KCl, 2 mM CaCl2, 1 mM MgCl2, pH 7.4) and incubated in the same buffer for 10 minutes at room temperature to lower intracellular pH with 0-30 μM test compound. […] Changes in intracellular pH were monitored using a FLIPR Tetra® (Molecular Devices, Sunnyvale, Calif.) by excitation at λex 439 to 505 nm, and measuring BCECF fluorescence at λem 538 nm. The initial rate of the fluorescence ratio change was used as a measure of NHE-mediated Na^+/H^+ activity, and reported as the change in fluorescence ratio per minute. Initial rates were plotted as the average 2 or more replicates, and pIC50 values were estimated using GraphPad Prism.

The target of assay [3] is T1, human NHE3. The experiment in a line: Cell-based assay of NHE-3 activity (human NHE3 inhibition assay). On the set-up: expressed in transfected cells; host or cells: Opossum kidney (OK) cells (ATCC), electroporated. Particulars: OK cells with human NHE-3 gene, BCECF pH recovery, 0-30 μM test compound; read-out: Human NHE3 pIC50 (converted). The method, then:
Rat or human NHE-3-mediated Na^+-dependent H^+ antiport was measured using a modification of the pH sensitive dye method originally reported by Paradiso (Proc. Natl. Acad. Sci. USA. (1984) 81(23): 7436-7440). Opossum kidney (OK) cells were obtained from the ATCC and propagated per their instructions. The rat NHE-3 gene (GenBank M85300) or the human NHE-3 gene (GenBank NM_004174.1) was introduced into OK cells via electroporation, and cells were seeded into 96 well plates and grown overnight. Medium was aspirated from the wells, cells were washed twice with NaCl-HEPES buffer (100 mM NaCl, 50 mM HEPES, 10 mM glucose, 5 mM KCl, 2 mM CaCl2, 1 mM MgCl2, pH 7.4), then incubated for 30 min at room temperature with NH4Cl-HEPES buffer (20 mM NH4Cl, 80 mM NaCl, 50 mM HEPES, 5 mM KCl, 2 mM CaCl2, 1 mM MgCl2, pH 7.4) containing 5 μM bis(acetoxymethyl) 3,3′-(3′,6′-bis(acetoxymethoxy)-5-((acetoxymethoxy)carbonyl)-3-oxo-3H-spiro[isobenzofuran-1,9′-xanthene]-2′,7′-diyl)dipropanoate (BCECF-AM). Cells were washed twice with Ammonium free, Na^+-free HEPES (100 mM choline, 50 mM HEPES, 10 mM glucose, 5 mM KCl, 2 mM CaCl2, 1 mM MgCl2, pH 7.4) and incubated in the same buffer for 10 minutes at room temperature to lower intracellular pH. […] Initial rates were plotted as the average 2 or more replicates, and pIC50 values were estimated using GraphPad Prism.

For assay [4], the system named is absorption of sodium from the intestinal lumen. The experiment in a line: Inhibition of intestinal sodium absorption: rat urinary sodium and fecal form 16 h post-dose. Type of assay: in vivo, Sprague-Dawley rats. Particulars: for FFS (fecal form score): 16 h post-dose, scale 1-5, group average. The method, then: Urinary sodium concentration and fecal form were measured to assess the ability of selected example compounds to inhibit the absorption of sodium from the intestinal lumen. Eight-week old Sprague-Dawley rats were purchased from Charles River Laboratories (Hollister, Calif.), were housed 2 per cage, and acclimated for at least 3 days before study initiation. Animals were fed Harlan Teklad Global 2018 rodent chow (Indianapolis, Ind.) and water ad libitum throughout the study and maintained in a standard light/dark cycle of 6 AM to 6 PM. On the day of the study, between 4 PM and 5 PM, a group of rats (n=6) were dosed via oral gavage with test compound or vehicle (water) at a volume of 10 mL/kg. After dose administration animals were placed in individual metabolic cages where they were also fed the same chow in meal form and watered ad libitum. At 16 h post-dose, the urine samples were collected and fecal form was assessed by two independent observations. Fecal forms were scored according to a common scale associated with increasing fecal water to the wettest observation in the cage's collection funnel (1, normal pellet; 2, pellet adhering to sides of collection funnel due to moisture; 3, loss of normal pellet shape; 4, complete loss of shape with a blotting pattern; 5, liquid fecal streams evident). A rat's fecal form score (FFS) was determined by averaging both observational scores for all rats within a group (n=6). The vehicle group average was 1. For urine samples, the volumes were determined gravimetrically and centrifuged at 3,600×g. The supernatants were diluted 100-fold in deionized Milli-Q water then filtered through a 0.2 μm GHP Pall AcroPrep filter plate (Pall Life Sciences, Ann Arbor, Mich.) prior to analysis by ion chromatography. Ten microliters of each filtered extract was injected onto a Dionex ICS-3000 ion chromatograph system (Dionex, Sunnyvale, Calif.). Cations were separated by an isocratic method using 25 mM methanesulfonic acid as the eluent on an IonPac CS12A 2 mm i.d.×250 mm, 8 μm particle size cation exchange column (Dionex). Sodium was quantified using standards prepared from a cation standard mix containing Li^+, Na^+, NH4^+, K^+, Mg^2+, and Ca^2+ (Dionex). The mean mass of sodium urinated for every group in the 16 h period was determined with the vehicle group usually urinating approximately 21 mg sodium. The urine Na (uNa) for rats in the test groups were expressed as a percentage of the vehicle mean and the means were compared to that of the vehicle group by utilizing a one-way analysis of variance coupled with a Dunnett's post hoc test.

Setting [5] is: oral gavage 10 mg/kg, urine 16 h post-dose, read-out: uNa Result, uNa (% of vehicle).

Bounds are passed on as bounds.

Here are results for seven compounds from patent US10376481B2, “Compounds and methods for inhibiting NHE-mediated antiport in the treatment of disorders associated with fluid retention or salt overload and gastrointestinal tract disorders” (ARDELYX, INC, priority 2012, dated 2019).

Consider `O=C(NCCCCNC(=O)NCCOCCOCCNS(=O)(=O)c1ccc(O[C@H]2c3cc(Cl)cc(Cl)c3C[C@@H]2N2CCCC2)cc1)NCCOCCOCCNS(=O)(=O)c1ccc(O[C@H]2c3cc(Cl)cc(Cl)c3C[C@@H]2N2CCCC2)cc1` [Example 17], for which, at human NHE3 [1], the “% inhibition (human Persistence assay)” value was “C (>70%)”. Besides, the IC50 at human NHE3 [1] (read-out: pIC50 (human Persistence assay) (converted)) was < 100 nM; on human NHE3 [2] (PS120 fibroblasts stably expressing human NHE3, 10 min pre-incubation with 0-30 μM test compound, read-out: pIC50 (human Preincubation assay) (converted)), < 100 nM; at human NHE3 [3] it was < 100 nM. For the same compound, the “% inhibition (human Preincubation assay)” value at human NHE3 [2] (PS120 fibroblasts stably expressing human NHE3, pre-incubation with test compound) is reported as “C (>70%)”.
Consider `O=C(NCCOCCOCCNS(=O)(=O)c1ccc(O[C@H]2c3ccccc3C[C@@H]2N2CCCCC2)cc1)c1ccc(C(=O)NCCOCCOCCNS(=O)(=O)c2ccc(O[C@H]3c4ccccc4C[C@@H]3N3CCCCC3)cc2)cc1` [Example 6, N1,N4-bis(2-(2-(2-(4-((1S,2S)-2-(piperidin-1-yl)-2,3-dihydro-1H-inden-1-yloxy)phenylsulfonamido)ethoxy)ethoxy)ethyl)terephthalamide], for which, at human NHE3 [3], the IC50 is < 100 nM. Also, the “FFS (fecal form score)” value in assay [4] (oral gavage 10 mg/kg) is on record as 1. The response vs control in vivo at 10 mg/kg in assay [4] (setting [5]) was in the range of 35 to 75%.
As to `CN(C)[C@H]1Cc2c(Cl)cc(Cl)cc2[C@@H]1Oc1ccc(S(=O)(=O)NCCOCCOCCNC(=O)Nc2ccc(NC(=O)NCCOCCOCCNS(=O)(=O)c3ccc(O[C@H]4c5cc(Cl)cc(Cl)c5C[C@@H]4N(C)C)cc3)cc2)cc1` [Example 27], the IC50 on human NHE3 [3] is < 100 nM. For the same compound, in assay [4] (oral gavage 10 mg/kg), the “FFS (fecal form score)” value turned out to be 1. The response vs control in vivo at 10 mg/kg in assay [4] (setting [5]) is < 35%.
For the compound `O=C(NCCOCCOCCNS(=O)(=O)c1ccc(O[C@H]2c3ccccc3C[C@@H]2N2CCCCC2)cc1)c1cccc(C(=O)NCCOCCOCCNS(=O)(=O)c2ccc(O[C@H]3c4ccccc4C[C@@H]3N3CCCCC3)cc2)c1` [Example 33], the IC50 at human NHE3 [3] was < 100 nM. Further, in assay [4] (setting [5]), the response vs control in vivo at 10 mg/kg lay in the range of 35 to 75%.
As for `O=C(NCCCCNC(=O)NCCOCCOCCNC(=O)Nc1ccc(O[C@H]2c3ccccc3C[C@@H]2N2CCCCC2)cc1)NCCOCCOCCNC(=O)Nc1ccc(O[C@H]2c3ccccc3C[C@@H]2N2CCCCC2)cc1` [Example 38], the IC50 at human NHE3 [3] was < 100 nM. For the same compound, the “FFS (fecal form score)” value in assay [4] (oral gavage 3 mg/kg) amounted to 1. Besides, the response vs control in vivo at 3 mg/kg in assay [4] (oral gavage 3 mg/kg, urine 16 h post-dose, read-out: uNa Result, uNa (% of vehicle)) is > 75%.
Take `O=C(NCCCCNC(=O)NCCOCCOCCNS(=O)(=O)c1ccc(O[C@H]2c3ccccc3C[C@@H]2N2CCCC2)cc1)NCCOCCOCCNS(=O)(=O)c1ccc(O[C@H]2c3ccccc3C[C@@H]2N2CCCC2)cc1` [Example 19]: at human NHE3 [3], the IC50 is > 10000 nM. For the same compound, the response vs control in vivo at 10 mg/kg in assay [4] (setting [5]) is 35 to 75%.
For the compound `O=C(NCCOCCOCCOCCNS(=O)(=O)c1ccc(O[C@H]2c3ccccc3C[C@@H]2N2CCCCC2)cc1)c1ccc(C(=O)NCCOCCOCCOCCNS(=O)(=O)c2ccc(O[C@H]3c4ccccc4C[C@@H]3N3CCCCC3)cc2)cc1` [Example 34], the IC50 at human NHE3 [3] was < 100 nM. In addition, the response vs control in vivo at 10 mg/kg in assay [4] (setting [5]) is > 75%.
